Measurements: the supplement of paper PMC10307832

What was measured:
Experiment in all cases: relative viability (nuclei count vs DMSO), 5 days (fraction); higher = more cells survive
[1] = compound: C[As](C)SC[C@H](NC(=O)CC[C@H](N)C(=O)O)C(=O)NCC(=O)O [Darinaparsin] + COc1cc2c(Oc3ccc(NC(=O)C4(C(=O)Nc5ccc(F)cc5)CC4)cc3F)ccnc2cc1OCCCN1CCOCC1 [Foretinib] (partner 0.25 µM)
Method in brief: (§1)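 A single step with final 0.05% Triton X-100, 1% formaldehyde and 1 ug/ml Hoechst fixed the cells and stained nuclei 5 days after treatment. Lung cancer cell lines in 1536-well plates had been treated by pin tool the day after seeding with one drug alone or a fixed anchor-drug dose plus five library-drug doses (not always all listed) in √10 steps, and nuclei were counted on 4× images. Relative viability is the ratio of nuclei in treated wells to nuclei in vehicle wells, taken as the median of duplicate plates.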

[2] = compound: C1CC2=C(C1)C=C(C=C2)OC3=NC(=C4C(=N3)N(C=N4)CC5=CC=C(C=C5)C6=CC=CC=C6)N[C@@H](CC7=CC=CC=C7)CO [QS11] + Nc1ncn([C@H]2C[C@H](O)[C@@H](CO)O2)c(=O)n1 [Decitabine] (partner 2 µM)
Method in brief: as §1

[3] = compound: CC1=C(C=C(C=C1)NC(=O)C2=CC(=CC=C2)C(C)(C)C#N)NC3=CC4=C(C=C3)N=CN(C4=O)C [AZ628] + Nc1ncn([C@H]2C[C@H](O)[C@@H](CO)O2)c(=O)n1 [Decitabine] (partner 2 µM)
Method in brief: as §1

[4] = compound: C1CC2=C(C1)C=C(C=C2)OC3=NC(=C4C(=N3)N(C=N4)CC5=CC=C(C=C5)C6=CC=CC=C6)N[C@@H](CC7=CC=CC=C7)CO [QS11] + COc1cccc2cc(-c3nc([C@H]4CC[C@H](C(=O)O)CC4)n4ncnc(N)c34)[nH]c12 [OSI-027] (partner 0.5 µM)
Method in brief: as §1

Cell Line	relative viability ([1]; first compound 0.08 µM)	relative viability ([1]; first compound 0.8 µM)	relative viability ([1]; first compound 2.53 µM)	relative viability ([1]; first compound 8 µM)	relative viability ([2]; first compound 0.08 µM)	relative viability ([2]; first compound 0.253 µM)	relative viability ([2]; first compound 0.8 µM)	relative viability ([2]; first compound 2.53 µM)	relative viability ([2]; first compound 8 µM)	relative viability ([3]; first compound 0.08 µM)	relative viability ([3]; first compound 0.253 µM)	relative viability ([3]; first compound 0.8 µM)	relative viability ([3]; first compound 2.53 µM)	relative viability ([3]; first compound 8 µM)	relative viability ([4]; first compound 0.08 µM)	relative viability ([4]; first compound 0.253 µM)	relative viability ([4]; first compound 0.8 µM)	relative viability ([4]; first compound 2.53 µM)	relative viability ([4]; first compound 8 µM)
NCI-H2347	0.859	1.01	0.994	1.05	0.587	0.563	0.582	0.694	0.659	0.522	0.605	0.582	0.613	0.36	0.489	0.474	0.411	0.371	0.347
NCI-H2405	0.994	1.05	0.929	1.07	0.793	0.714	0.706	0.906	0.843	0.552	0.53	0.488	0.495	0.408	0.626	0.663	0.64	0.654	0.694
NCI-H3122	1.03	0.964	0.94	0.789	0.484	0.554	–	0.487	0.556	0.307	0.21	0.221	0.239	0.161	1.03	1.41	–	0.994	0.757
PC-3 [JPC-3]	1.13	1.03	1.1	1.13	–	0.76	0.836	0.871	0.806	0.86	0.813	0.924	0.827	0.642	0.794	0.743	0.371	0.718	0.739
PC-14	1.18	0.981	0.927	1.14	0.244	0.196	0.199	0.22	0.195	0.255	0.228	0.168	0.19	0.166	0.731	0.98	0.809	0.807	0.695
RERF-LC-KJ	1.03	0.931	0.859	0.961	0.765	0.691	0.619	0.692	0.524	0.698	0.708	0.644	0.647	0.688	0.519	0.578	0.543	0.448	0.438
SK-LU-1	1.13	0.76	0.65	0.958	0.586	0.59	0.595	0.6	0.57	0.549	0.55	0.505	0.577	0.391	0.321	0.327	0.326	0.254	0.291
SK-MES-1	1.05	0.808	0.595	1.05	0.361	0.444	0.339	0.447	0.351	0.448	0.379	0.434	0.43	0.338	0.627	0.575	0.544	0.615	0.623
SW 900	0.919	0.778	0.918	1.06	0.37	0.475	0.413	0.491	0.412	0.442	0.445	0.509	0.417	0.441	0.547	0.601	0.661	0.487	0.423
SW 1573	1.05	1.01	0.867	1.33	0.548	0.612	0.558	0.475	0.388	0.503	0.445	0.435	0.408	0.374	0.583	0.655	0.734	0.465	0.278
UMC-11	1.16	1.03	0.974	1.25	0.318	0.482	0.604	0.543	0.651	0.704	0.65	0.551	0.556	0.758	0.474	0.481	0.501	0.492	0.57
